For experiment [1], the system named is SL1344 ΔphoP. The experiment can be described thus: MIC determination by broth microdilution. The experiment is classed as cell-based, Salmonella enterica serovar Typhimurium. To be noted: ∼10^5 cfu/ml; for MIC in μM, SL1344 ΔphoP: Table 3, three biological replicates. Here is the method:
(§1) MIC values were determined by broth microdilution according to standard protocols with a few modifications ([26]). An overnight bacterial cell culture, supplemented with the appropriate antibiotic when needed, was diluted 1:100 in fresh MHB and grown to OD600 0.5. The obtained culture was diluted to ∼10^5 cfu/ml or 10^6 cfu/ml, as indicated, in non-cation-adjusted MHB. Subsequently, 190 μl bacterial solution was dispensed into a 96-well plate (Thermo Fisher Scientific) along with 10 μl of a 20x PPNA, PNA or peptide working solution. Growth was monitored by measuring the OD at 600 nm every 20 min in a Synergy H1 plate reader (Biotek) with continuous double-orbital shaking (237 cpm) at 37°C for 24 h.
Fig. S4. Growth kinetics for MIC determ ination of 10^5 cfu/m l Salmonella wt (SL1344) and its isogenic ∆phoP m utant in the pres ence of var ying concentrations of the indicated conjugates. ( A) KFF-acpP, KFF-acpP-scram bled (scr) or KFF peptide in serial dilutions from 10 µM to 0.3 µM. ( B) RXR- acpP, RXR-acpP-scram bled (scr) or RXR peptide in seria l d ilutions f rom 10 µM to 0. 3 µM. ( C) T at-acpP, T at-acpP-scrambled (scr) or T at peptide in serial dilutions from 20 µM to 0.6 µM. D ata represent the average of three biological replicates, error bars indicate standard er ror of the m ean […]
(§2) (1 picture or pasted object on this page, not shown here)
For orientation: In broth dilution the organism is exposed to a series of concentrations in liquid medium.

In experiment [2] the test system is wild-type (wt) Salmonella enterica serovar Typhimurium strain SL1344. The conditions noted are these: for MIC: non-cation-adjusted MHB, 37°C, 24 h; for MIC in μM, SL1344 wt: Table 3, three biological replicates. As for the experimental part: as §1
The test system of experiment [3] is acpP mRNA. The experiment can be described thus: RNA-seq differential expression, target transcript. The conditions noted are these: 5 μM KFF-/RXR-constructs, 10 μM Tat-constructs, triplicates; for reduction in acpP transcript levels (RNA-seq): 15 min post treatment, ∼10^6 cfu/ml, versus water control; for logFC acpP: edgeR, versus water, 15 min. Format: cell-based, Salmonella enterica serovar Typhimurium. As for the experimental part: Bacterial overnight cultures were diluted 1:100 in fresh MHB and grown to OD600 0.5. The obtained cultures were diluted to ∼10^6 cfu/ml in non-cation-adjusted MHB. Afterward, the bacterial solution was transferred into low-binding 5 ml tubes (LABsolute) along with the 20× PNA, peptide or PPNA solution. The final concentrations were 5 μM for KFF- and RXR-PNAs, and 10 μM for Tat-PNAs. Equimolar concentrations were used for the respective peptide control conditions. As a negative control, cells were treated with the respective volume of sterile nuclease-free water, which was used as solvent for the test compounds.
A time kinetic was performed for subsequent northern blot analysis (5, 10, 15 min), in which the reaction was stopped at the indicated time points by using RNAprotect Bacteria (Qiagen). For RNA-seq analyses, adding RNAprotect Bacteria at 15 min post treatment stopped the reactions with the indicated PPNA constructs or the respective peptide. After vortexing for 5 s, the samples were incubated at room temperature for 10 min, followed by cell pelleting at 4°C and 21 100 ×g for 20 min. Pellets were directly used for RNA isolation or stored at –20°C (<2 days) until further processing. RNA was purified from bacterial pellets using isolation protocol #3, as described above (0.5 mg/ml lysozyme, miRNeasy).
DNase treatment, cDNA library preparation and sequencing was conducted at Vertis (Munich, Germany). The RNA samples were first fragmented using ultrasound (4 pulses of 30 s each at 4°C). Then, an oligonucleotide adapter was ligated to the 3′ ends of the RNA molecules. First-strand cDNA synthesis was performed using M-MLV reverse transcriptase and the 3′ adapter as primer. The first-strand cDNA was purified and the 5′ Illumina TruSeq sequencing adapter was ligated to the 3′ end of the antisense cDNA. The resulting cDNA was PCR-amplified to about 10–20 ng/μl using a high fidelity DNA polymerase. The cDNA was purified using the Agencourt AMPure XP kit (Beckman Coulter Genomics) and was analyzed by capillary electrophoresis. For Illumina NextSeq sequencing, the samples were pooled in approximately equimolar amounts. The cDNA pool was sequenced on an Illumina NextSeq 500 system using 75 bp read length.
Reads from the RNA-Seq experiments were trimmed, filtered and mapped against the S. enterica subsp. enterica serovar Typhimurium SL1344 reference genome and the three plasmids pSLT_SL1344, pCol1B9_SL1344 (other name is p2), and pRSF1010_SL1344 ([19]). BBDuk was applied to trim bases with a Phred quality score of <10, and adapters were removed simultaneously. Reads were then mapped against the reference genome using BBMap (v38.84) and then assigned genomic features, including both coding sequences and annotated sRNAs ([19],[29]) using the featureCounts method of the Subread (2.0.1) package.
All downstream analysis was performed using packages from the R/Bioconductor project. The raw read counts were imported and analyzed with edgeR (v3.30.0). Each set of PNA-peptide conjugate experiments (i.e. experiments with KFF, RXR and Tat peptide) was analyzed simultaneously. Genes with less than 14.6 counts per million (CPM) in at least three libraries were filtered. This cutoff value was calculated using 10/L, where L is the library size of the smallest sample (minimum library size) in millions.
Raw read counts were normalized by trimmed mean of M values (TMM) normalization. Differential expression analysis was conducted using edgeR ([31]). Estimation of quasi-likelihood (QL) dispersions was then run with the […] function. Then contrasts between all samples versus the water controls were created as input for the glmQLTest function.
Genes with an absolute fold change >2 and an adjusted P-value (Benjamini–Hochberg, ([32])) <0.001 were considered differentially expressed.

Experiment [4] has as its system wild-type Salmonella enterica serovar Typhimurium strain LT2. Briefly: MIC determination by broth microdilution. Format: cell-based. The conditions noted are these: Table 3; ∼10^5 cfu/ml; three biological replicates. As for the experimental part: as §1
Fig. S5. Growth k inetics for MIC determ ination of 10^5 cfu/m l Salmonella wt (LT 2) and its isogenic
Pho PC m utant in the presen ce of var ying co ncentra tio n s of the in dicat ed co njugat e s. ( A) KFF-acpP,
KFF-acpP-scram bled (scr) or KFF peptide in s erial dilutions from 10 µM to 0.3 µM. ( B) RXR- acpP,
RXR- acpP-scram bled (scr) or RXR peptide in serial dilutions from 10 µM to 0.3 µ M. ( C) T at-acpP,
T at-acpP-scram bled (scr) or T at peptide in serial dilutions from 20 µM to 0.6 µM. Data represent
the average of three biological replicates, error bars indicate standard error of the m ean (SEM).
as §2

[5] abbreviates: Table 1, ∼10^5 cfu/ml, lowest concentration with OD600 < 0.1.
Setting [6] is: Table 2, ∼10^6 cfu/ml, performed three times.

“And” between values parts separate entries of the source, which are not always exact repeats. Equal values may be shown once. Read-outs that look alike come from different tables or passages of the source.

Turning to “GRKKKRRQRRRYK [Tat-acpP, Tat peptide conjugated to 10-mer antisense PNA against acpP]”, the “reduction in the MIC of the ΔphoP strain compared to wild-type Salmonella” value in experiment [1] (SL1344 ΔphoP versus SL1344 wt) worked out at 2 fold. In addition, the “MIC in μM, SL1344 ΔphoP” value in experiment [1] amounted to 2.5 µM. Besides, the “MIC” value in experiment [2] (Table 1, ∼10^5 cfu/ml) is 22 µg/mL; in experiment [2] (setting [5]), 5 µM; in experiment [2] (setting [6]), 10 µM. The “MIC in μM, SL1344 wt” value in experiment [2] (∼10^5 cfu/ml) amounted to 5 µM. For the same sequence, the “reduction in acpP transcript levels (RNA-seq)” value (“reduction … (RNA-seq)” for short) in experiment [3] is around 3 fold. For the same sequence, the “logFC acpP” value in experiment [3] is -1.6191. Also, the “MIC in μM, LT2 wt” value in experiment [4] was in the range of 2.5 to 5 µM.

On to “KFFKFFKFFK [KFF-acpP, KFF peptide conjugated to 10-mer antisense PNA against the translational start site of acpP]”, for which the “MIC in μM, SL1344 ΔphoP” value in experiment [1] was “did not alter the MIC and 1.25 μM”. Also, the “MIC” value in experiment [2] (Table 1, ∼10^5 cfu/ml) was 5 µg/mL; in experiment [2] (setting [5]) it was 1.25 µM; in experiment [2] (setting [6]) it was 5 µM. Further, the “MIC in μM, SL1344 wt” value in experiment [2] (∼10^5 cfu/ml) was determined as 1.25 µM. The “reduction … (RNA-seq)” value in experiment [3] is 4.5- to 5 fold. The “logFC acpP” value in experiment [3] is -2.241. For the same sequence, the “MIC in μM, LT2 wt” value in experiment [4] amounted to 1.25 µM.

Regarding “RXRRXRRXRRXRXB [RXR-acpP, RXR peptide conjugated to 10-mer antisense PNA against acpP]”, the “MIC in μM, SL1344 ΔphoP” value in experiment [1] was in the range of 1.25 to 2.5 µM. For the same sequence, the “MIC” value turned out to be 11 µg/mL in experiment [2] (Table 1, ∼10^5 cfu/ml); 2.5 µM in experiment [2] (setting [5]); 5 µM in experiment [2] (setting [6]). Moreover, the “MIC in μM, SL1344 wt” value in experiment [2] (∼10^5 cfu/ml) worked out at 2.5 µM. In addition, in experiment [3], the “reduction … (RNA-seq)” value is on record as 4.5- to 5 fold. Also, the “logFC acpP” value in experiment [3] is -2.35. The “MIC in μM, LT2 wt” value in experiment [4] stood at 1.25 µM.

The term MIC denotes the lowest concentration that inhibits growth of the organism.

For the origin of these results see article PMC8096218, “Global RNA profiles show target selectivity and physiological effects of peptide-delivered antisense antibiotics” (Nucleic Acids Research, 2021).
